Measurements from BigSolDB 2.1.

Cc1nc2n(c(=O)c1CCN1CCC(c3noc4cc(F)ccc34)CC1)CCCC2
solubility (mole fraction)
Conditions	in ethanol	in methanol	in water
283.15 K	0.00105	0.00239	4.63e-08
283.16 K	0.00104	0.00239	4.63e-08
288.15 K	0.00138	0.00294	6.24e-08
288.16 K	0.00138	0.00294	6.24e-08
293.15 K	0.0017	0.00363	8.15e-08
293.16 K	0.0017	0.00363	8.15e-08
298.15 K	0.00216	0.00443	1.08e-07
298.16 K	–	0.00443	1.08e-07
303.15 K	0.00272	0.00546	1.38e-07
303.16 K	–	0.00546	1.38e-07
308.15 K	0.0035	0.00673	1.83e-07
308.16 K	–	0.00674	1.83e-07
313.15 K	0.00438	0.0083	2.38e-07
313.16 K	–	0.0083	2.38e-07
318.15 K	–	0.0101	2.91e-07
318.16 K	–	0.0101	2.91e-07
323.15 K	–	0.0121	3.81e-07
323.16 K	–	0.0121	3.81e-07
328.15 K	–	0.0148	4.79e-07
328.16 K	–	0.0148	4.79e-07
